Tests used:
male C57B1/6 mice [1] = assay: TNF-α model of liver injury (TNFα/D-Gln), plasma ALT activity; format: in vivo; conditions: PO by gavage 30 minutes before D-Gln/TNFα insult; blood 6 hours later; average from 4 studies
Protocol: (§1) TNF-α is a cytokine that is implicated in inducing liver injury in a variety of acute and chronic liver diseases such as chronic HCV and acute liver failure. An exemplary in vivo model to test pharmacological agents against TNF-α induced injury is the TNF-α/D-Gal model of liver injury in mice. In this model, mice are treated with TNF-α/D-Gal and compound is administered to evaluate its ability to protect against liver damage. The compound is administered either before, at the time of or after the treatment with TNF-α/D-Gal, and followed for a period of approximately 6 hours. Allowing this model to persist past 6 hours is a variation used to determine the improved survival afforded by compound treatment.
(§2) In vivo efficacy of RO-113-0830 was assessed using male C57B1/6 mice (Simonsen Labs) in two well-established models of liver damage. The mice were allowed to acclimate for at least three days.
In the TNF-α model of liver injury, D-Galactosamine (D-Gln) (800 mg/kg) and TNFα (20 or 40 μg/kg) were injected IP. RO-113-0830 (0.001-30 mg/kg) was administered PO by gavage 30 minutes before insult. Six hours later, animals were anesthetized with Nembutal (50 mg/kg IP), and blood was taken by cardiac puncture. Plasma ALT activity was determined using a kit from Sigma-Aldrich.

male C57B1/6 mice [2] = assay: TNF-α model (TNFα/D-Gln), 24 hour survival; format: in vivo; conditions: TNFα/D-Gln insult; average from 3 studies; p=0.03 vs control (27±7.3%)
Protocol: as §1, §2
To determine a benefit on survival, TNF-α model, D-Galactosamine (D-Gln) (800 mg/kg) and TNF-α (20 or 40 μg/kg) were injected IP, and mice were allowed to survive for 24 hours post insult. All morbid mice were euthanized with 125 mg/kg of Nembutal IP. The average 24 hour survival from 3 studies was 27±7.3% and. 55±7.6% (p=0.03) in the TNFα/D-Gln control mice and RO-113-0830-treated mice, respectively.

male C57B1/6 mice [3] = assay: Fas driven model of liver damage (Jo-2 antibody), plasma ALT activity; format: in vivo; conditions: 10 mg/kg PO; 6 hours after Jo-2 IV; average of 2 studies; p<0.05 in each study
Protocol: as §2
In a Fas driven model of liver damage, an activating antibody to Fas (Jo-2) was administered IV. Six hours later, animals were anesthetized with Nembutal (50 mg/kg IP), and blood was taken by cardiac puncture. Plasma ALT activity was determined using a kit from Sigma-Aldrich.

full-length HCV replicon = assay: HCV RNA replicon antiviral evaluation assay; format: cell-based, Hepatitis C virus; conditions: 72 hr; HCV RNA replicon levels by TaqMan RT-PCR; read-out: EC50 (concentration inhibition virus replication by 50%)
Protocol: The assay was conducted as described by Pietschmann, T. et al., supra.
Human interferon alpha-2b was included in each run as a positive control compound. Subconfluent cultures of the ET line were plated out into 96-well plates that were dedicated for the analysis of cell numbers (cytotoxicity) or antiviral activity and the next day drugs were added to the appropriate wells. Cells were processed 72 hr later when the cells were still sub-confluent. HCV RNA replicon levels and the toxic concentration of drug that reduces cell numbers, as indicated by host cell ribosomal RNA (rRNA) levels, were assessed by TaqMan RT-PCR. The EC50 (concentration inhibition virus replication by 50%), IC50 (concentration decreasing cell viability by 50%) and S150 (selective index: IC50/EC50) values were calculated.

[4] = system: Huh7 human hepatoma cell line (the 21-5 cell line); conditions: read-out: IC50 for cytotoxicity (concentration decreasing cell viability by 50%); 72 hr; host cell rRNA levels by TaqMan RT-PCR
Source text: Cells were processed 72 hr later when the cells were still sub-confluent.

C57/BL6 wild-type mice = assay: Bile duct ligation model of liver fibrosis; format: in vivo; conditions: 10 mg/kg by gavage once a day
Protocol: The bile duct ligation model is a well characterized model of liver fibrosis. Briefly, C57/BL6 wild-type mice 6 to 8 weeks of age were subjected to bile duct ligation (BDL) for 14 days: Sham-operated wild type mice were used as controls. Either RO 113-0830 or CMC (carboxymethylcellulose) were administered by gavage in a dose of 10 mg/kg body weight once a day. Hepatocyte apoptosis was quantified by the TUNEL assay and immunofluorescence for activated caspases 3/7. Liver injury was assessed by histopathology, and quantification of bile infarcts. Hepatic fibrosis was assessed by Sirius red staining and quantitative morphometry. Real-time polymerase chain reaction (PCR) was used to measure mRNA transcripts for collagen 1alpha (I) and alpha-smooth muscle actin.

Structure (SMILES): O=C(NO)C1(CS(=O)(=O)c2ccc(Oc3ccc(Cl)cc3)cc2)CCOCC1 [RO-113-0830]
- ED50 for decrease of plasma ALT activity (male C57B1/6 mice [1]): 0.26 ± 0.08 mg/kg
- 24 hour survival (male C57B1/6 mice [2]): 55±7.6%
- reduction of Fas-induced elevation in plasma ALT activity (male C57B1/6 mice [3]): 50%
- EC50 (full-length HCV replicon): 0.07 µM
- IC50 [4]: ~25 µM
- reduction of Sirius red staining of hepatic collagen (C57/BL6 wild-type mice; 14 days of BDL): 3 fold
- reduction in the number of bile infarcts vs vehicle treated BDL mice (C57/BL6 wild-type mice; 14 days of BDL, histologic examination): > 70%
- decrease in TUNEL-positive hepatocytes vs vehicle (C57/BL6 wild-type mice; 14 days of BDL, p<0.01): 3 fold
- decrease in caspase 3/7-positive hepatocytes vs vehicle (C57/BL6 wild-type mice; 14 days of BDL, p<0.01): 5 fold
- reduction of hepatic alpha-smooth muscle actin mRNA vs vehicle-treated BDL animals (C57/BL6 wild-type mice; 14 days of BDL, real-time PCR): > 60%
- reduction of hepatic collagen I mRNA vs vehicle-treated BDL animals (C57/BL6 wild-type mice; 14 days of BDL, real-time PCR): > 60%
- overall animal survival following 14 days of BDL (C57/BL6 wild-type mice; p<0.05): significantly enhanced

Source: US20080207605A1, “Combination therapy for the treatment of liver diseases” (priority 2007, published 2008)
